Measurements from patent US5728815A, “Bone and prostate-derived protein factors affecting prostate cancer growth, differentiation, and metastasis” (priority 1994, dated 1998).

Experiments:
[1] = tested on: PSA mRNA in parental LNCaP cells; test: PSA gene expression, Northern analysis of PSA mRNA; type: cell-based, human; settings: for Relative PSA mRNA level: 48 h, control defined as 1.0; for steady-state levels of PSA mRNA: parental LNCaP cells, result in words
Description: FIG. 6A. The effect of PSA gene expression in parental LNCaP cells treated with a variety of growth factors. The parental LNCaP cells were incubated with agents as indicated (control cells were incubated with T medium containing 2% TCM). Forty-eight hours after treatment, total cellular RNA was prepared and 20 μg of total cellular RNA was subjected to Northern analysis. Relative PSA mRNA levels (in parenthesis) were determined by densitometrical quantification, and the control is defined as 1.0; (A) TGF-α 100 (0.98); TGF-α 10 (1.01); TGF-α 1 (1.15); bFGF 100 (1.22); bFGF 10 (1.04); bFGF 1 (0.97); TGF-β 0.01 (0.72); TGF-β 0.1 (0.84); TGF-β 1 (0.53); NGF 1 (1.13); NGF 100 (1.08),
FIG. 6B. The effect of PSA gene expression in parental LNCaP cells treated with a neuropeptide and a variety of α1 and β2-adrenergic agonists. I, bombesin 100 (0.62); bombesin 10 (0.89); II. isoproterenol 100 (0.51); isoproterenol 10 (1.11); isoproterenol 1 (1.07); III. dibutyryl cAMP 0.01 (1.09); dibutyryl cAMP 0.1 (1.11); dibutyryl cAMP 1.0 (1.23); IV. phenylephrine 1 (1.10); phenylephrine 10 (1.08); phenylephrine 100 (1.14).
Total cellular RNA was prepared from frozen tissues by the 4M guanidinium thiocyanate extraction method (Chomcjymski & Sacchi, 1987). Typical yields of total cellular RNA were about 300 μg/200 mg tissue as quantified spectrophotometrically using 40 μg RNA/A260 unit. RNA was denatured in 50% formamide/18% formaldehyde at 55° C. and fractionated by electrophoresis in a 0.9% denaturing formaldehyde agarose gel. Samples were transferred onto a Zetaprobe membrane (Bio-Rad) by capillary method, and the membrane was then baked for 2 hours at 80° C. The membrane was then prehybridized in the presence of 1M NaCl, 10% dextran sulfate, 1% SDS, and 200 μg/ml salmon sperm DNA for at least 2 hours at 65° C. Hybridization was carried out at 65° C. overnight with a random-primer-labeled probe as indicated. The PSA cDNA, and sequence specific hGK-1 and PSA oligonucleotide probes were obtained from Dr. D. Tindall (Mayo Clinic, Rochester, Minn.) (Lundwall & Lilja, 1987). Finally, the membrane was washed under high stringency conditions (0.5×SSC, 1% SDS at 65° C.). Autoradiograms were prepared by exposing Kodak X-Omat AR film to the membrane at -80° C. with intensifying screens.

[2] = prevents clinical use in human treatment; cited from earlier work
[3] = tested on: prostate tumor cell; settings: both in vitro and in vivo; cited from earlier work

## CCCC(=O)Nc1ncnc2c1ncn2[C@@H]1O[C@@H]2COP(=O)(O)O[C@H]2[C@H]1OC(=O)CCC [dibutyryl cAMP]
[1]; concentration 0.01 (unit not given)
  Relative PSA mRNA level: 1.09
[1]; concentration 0.1 (unit not given)
  Relative PSA mRNA level: 1.11
[1]; concentration 1.0 (unit not given)
  Relative PSA mRNA level: 1.23
[1]
  steady-state levels of PSA mRNA: no apparent increases

## CC(C)NCC(O)c1ccc(O)c(O)c1 (centres unmarked) [isoproterenol]
[1]; concentration 1 (unit not given)
  Relative PSA mRNA level: 1.07
[1]; concentration 10 (unit not given)
  Relative PSA mRNA level: 1.11
[1]; concentration 100 (unit not given)
  Relative PSA mRNA level: 0.51
[1]
  steady-state levels of PSA mRNA: no apparent increases

## CNC[C@H](O)c1cccc(O)c1 [phenylephrine]
[1]
  steady-state levels of PSA mRNA: no apparent increases

## Cc1ccc(C(=O)Nc2ccc(S(=O)(=O)O)c3cc(S(=O)(=O)O)cc(S(=O)(=O)O)c23)cc1NC(=O)c1cccc(NC(=O)Nc2cccc(C(=O)Nc3cc(C(=O)Nc4ccc(S(=O)(=O)O)c5cc(S(=O)(=O)O)cc(S(=O)(=O)O)c45)ccc3C)c2)c1 [suramin]
[2]
  toxicity in vivo: extreme toxicity
[3]
  prostate tumor cell growth: inhibit prostate tumor cell growth
